Structures can show the parent of a compound that is named as a salt.
The compounds below were run against T1, Mouse VCP (Mus musculus, UniProt Q01853) (assay: ATPase activity of purified His-tagged VCP, [γ-32P]ATP, liberated phosphate by liquid scintillation). Details: compounds of Examples; ATPase inhibitory activity; 500 ng VCP, 100 μM ATP, 37° C., 10 minutes.
T1 construct: histidine tag (N); made in house; host or cells: Sf-9 insect cells (baculovirus vector pVL1392)
Format: biochemical
Procedure: In one aspect, the effect of VCP regulators for regulating ATPase activity is determined, for example by the following exemplary assay. Mouse VCP cDNA (the amino acid sequence is completely identical among mouse, rat and human) is added with a DNA sequence corresponding to a histidine tag at the amino-terminal, subcloned into a baculovirus vector pVL1392 (BD Bioscience), and expressed in Sf-9 insect cells. The protein is purified with a nickel column. After the purification the concentration of the protein is adjusted to 0.25-0.5 μg/ml and the protein is stored in a solution containing 50 mM TrisCl pH 8.0, 5 mM EDTA, 10% glycerol, and 15 mM DTT at 4° C. 500 ng of the purified VCP is mixed with 100 μM [γ-^32P]ATP (18.5 GBq/mmol) and the test substance in 20 μL of ATPase buffer (20 mM HEPES (pH7.4), 50 mM KCl, 5 mM MgCl2, 15 mM DTT), and incubated at 37° C. for 10 minutes. The enzyme reaction is stopped with addition of 200 μL of an ice-cold solution containing 7% TCA and 1 mM K2HPO4. 50μ of a solution containing 3.75% ammonium molybdate and 0.02M tungstate silicic/3 N H2SO4 is added, followed by 300 μL of n-butylacetic acid, and then the liberated phosphate is extracted into the organic layer. The reaction tube is centrifuged for 5 minutes at 20,000 g to separate the aqueous layer and the organic layer, 200 μL of the organic layer is taken, and the beta ray radiated from the liberated phosphate is quantified with liquid scintillation counter. By measuring the ATPase activity in the presence of the test substance at various concentrations, ATPase inhibitory activity of the test substance is measured.
Mouse VCP cDNA was added with a DNA sequence corresponding to histidine tag at the amino-terminal, subcloned into a baculovirus vector pVL1392 (BD Bioscience), and expressed in Sf-9 insect cells. The protein was purified with a nickel column (GE Healthcare). The concentration of the protein was adjusted to 0.25-0.5 μg/ml and the protein was stored in a solution containing 50 mM TrisCl pH 8.0, 5 mM EDTA, 10% glycerol, and 15 mM DTT.
The ATPase activity was determined as follows. 500 ng of the purified VCP was mixed with 100 μM [γ-32P]ATP (18.5 GBq/mmol) and the test substance in 20 μL of ATPase buffer (20 mM HEPES (pH7.4), 50 mM KCl, 5 mM MgCl2, 15 mM DTT), and incubated at 37° C. for 10 minutes.
The enzyme reaction was stopped with addition of 200 μL of an ice-cold solution containing 7% TCA and 1 mM K2HPO4. 50μ of a solution containing 3.75% ammonium molybdate and 0.02M tungstate silicic/3 NH2SO4 was added, followed by 300 μL of n-butylacetic acid, and then the liberated phosphate was extracted into the organic layer. The reaction tube was centrifuged for 5 minutes at 20,000 g to separate the aqueous layer and the organic layer, 200 μL of the organic layer was taken, and the beta ray radiated from the liberated phosphate was quantified with liquid scintillation counter.
By measuring the ATPase activity in the presence of the test substance at various concentrations, ATPase inhibitory activity of the test substance was measured. IC50 of the each test substance was calculated by applying the measured values to the equation below using GraphPad Prism (GraphPad Software).

T1 sequence (Q01853 whole entry): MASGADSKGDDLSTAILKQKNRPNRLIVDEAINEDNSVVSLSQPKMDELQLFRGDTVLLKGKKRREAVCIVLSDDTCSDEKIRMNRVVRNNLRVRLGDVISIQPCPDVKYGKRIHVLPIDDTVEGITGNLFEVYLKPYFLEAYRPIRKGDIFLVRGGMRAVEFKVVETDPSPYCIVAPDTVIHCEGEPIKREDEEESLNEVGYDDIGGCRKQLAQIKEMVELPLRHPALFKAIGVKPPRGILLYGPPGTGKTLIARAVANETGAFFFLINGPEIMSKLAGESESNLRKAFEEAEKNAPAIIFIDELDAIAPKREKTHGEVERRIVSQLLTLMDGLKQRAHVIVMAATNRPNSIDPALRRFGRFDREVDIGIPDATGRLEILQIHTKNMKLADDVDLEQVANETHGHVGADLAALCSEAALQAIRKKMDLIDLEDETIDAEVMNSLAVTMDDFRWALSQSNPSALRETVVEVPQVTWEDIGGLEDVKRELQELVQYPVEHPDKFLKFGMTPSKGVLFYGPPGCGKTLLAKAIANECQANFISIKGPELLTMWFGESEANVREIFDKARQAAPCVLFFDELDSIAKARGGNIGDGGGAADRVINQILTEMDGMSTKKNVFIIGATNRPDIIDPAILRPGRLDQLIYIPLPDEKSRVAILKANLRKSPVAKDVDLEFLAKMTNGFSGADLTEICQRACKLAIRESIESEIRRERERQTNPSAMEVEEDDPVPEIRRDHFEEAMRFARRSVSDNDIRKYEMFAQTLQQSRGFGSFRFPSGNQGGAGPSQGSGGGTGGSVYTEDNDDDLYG

| SMILES | IC50 |
| --- | --- |
| Nc1c(/N=N/c2ccc(-c3ccccc3O)nc2)cc(S(=O)(=O)O)c2ccccc12 [Example 63, 4-amino-3-[6-(2-hydroxyphenyl)pyridine-3-ylazo]naphthalene-1-sulfonic acid sodium salt] | 807 nM |
| Cc1ccc(C)c(-c2ccc(/N=N/c3cc(S(=O)(=O)O)c4ccccc4c3N)cn2)c1 [Example 34, 4-amino-3-[6-(2,5-dimethylphenyl)pyridine-3-ylazo]naphthalene-1-sulfonic acid sodium salt] | 274 nM |
| Cc1ccc(-c2ccc(/N=N/c3cc(S(=O)(=O)O)c4ccccc4c3N)cn2)cc1 [Example 8, 4-amino-3-(6-p-tolylpyridine-3-ylazo)naphthalene-1-sulfonic acid sodium salt] | 430 nM |
| Cc1cccc(C)c1-c1ccc(/N=N/c2cc(S(=O)(=O)O)c3ccccc3c2N)cn1 [Example 90, 4-amino-3-[6-(2,6-dimethylphenyl)pyridine-3-ylazo]naphthalene-1-sulfonic acid sodium salt] | 112 nM |
| Nc1c(/N=N/c2ccc(-c3cccnc3)nc2-c2cccnc2)cc(S(=O)(=O)O)c2ccccc12 [Example 54, 4-amino-3-([3,2′;6′,3″]terpyridine-3′-ylazo)naphthalene-1-sulfonic acid sodium salt] | 1060 nM |
| CCCCOc1ccccc1-c1ccc(/N=N/c2cc(S(=O)(=O)O)c3ccccc3c2N)cn1 [Example 60, 4-amino-3-[6-(2-butoxyphenyl)pyridine-3-ylazo]naphthalene-1-sulfonic acid sodium salt] | 250 nM |
| Nc1c(/N=N/c2cccc(OCc3ccncc3)c2)cc(S(=O)(=O)O)c2ccccc12 [Example 139, 4-amino-3-[3-(pyridine-4-ylmethoxy)phenylazo]naphthalene-1-sulfonic acid sodium salt] | 600 nM |
| CCCCCCOc1ccccc1-c1ccc(/N=N/c2cc(S(=O)(=O)O)c3ccccc3c2N)cn1 [Example 61, 4-amino-3-[6-(2-hexyloxyphenyl)pyridine-3-ylazo]naphthalene-1-sulfonic acid sodium salt] | 843 nM |
| Nc1c(/N=N/c2cccc(C(=O)c3ccccc3)c2)cc(S(=O)(=O)O)c2ccccc12 [Example 130, 4-amino-3-(3-benzoylphenylazo)naphthalene-1-sulfonic acid sodium salt] | 260 nM |
| Nc1c(/N=N/c2ccccc2OCc2cccnc2)cc(S(=O)(=O)O)c2ccccc12 [Example 142, 4-amino-3-[2-(pyridine-3-ylmethoxy)phenylazo]naphthalene-1-sulfonic acid sodium salt] | 243 nM |
| Nc1c(/N=N/c2ccc(-c3cccc4c3S(=O)(=O)c3ccccc3-4)nc2)cc(S(=O)(=O)O)c2ccccc12 [Example 73, 4-amino-3-[6-(5,5-dioxo-5H-5λ^6-dibenzothiophene-4-yl)pyridine-3-ylazo]naphthalene-1-sulfonic acid sodium salt] | 499 nM |
| Nc1c(/N=N/c2ccc(F)cc2)cc(S(=O)(=O)O)c2ccccc12 [Example 102, 4-amino-3-(4-fluorophenylazo)naphthalene-1-sulfonic acid sodium salt] | 904 nM |
| Nc1c(/N=N/c2ccc(-c3cccs3)nc2)cc(S(=O)(=O)O)c2ccccc12 [Example 17, 4-amino-3-(6-thiophene-2-ylpyridine-3-ylazo)naphthalene-1-sulfonic acid sodium salt] | 143 nM |
| COc1ccccc1-c1ccc(/N=N/c2cc(S(=O)(=O)O)c3ccccc3c2N)cn1 [Example 25, 4-amino-3-[6-(2-methoxyphenyl)pyridine-3-ylazo]naphthalene-1-sulfonic acid sodium salt] | 300 nM |
| Nc1c(/N=N/c2ccc(-c3ccccc3OCCCNC(=O)c3ccnc(Cl)c3)nc2)cc(S(=O)(=O)O)c2ccccc12 [Example 77, 4-amino-3-[6-(2-{3-[(2-chloropyridine-4-carbonyl)amino]propoxy}phenyl)pyridine-3-ylazo]naphthalene-1-sulfonic acid sodium salt] | 366 nM |
| Nc1c(/N=N/c2ccc(OCC(F)(F)F)nc2)cc(S(=O)(=O)O)c2ccccc12 [Example 5, 4-amino-3-[6-(2,2,2-trifluoroethoxy)pyridine-3-ylazo]naphthalene-1-sulfonic acid sodium salt] | 495 nM |
| COc1ccc(-c2ccc(/N=N/c3cc(S(=O)(=O)O)c4ccccc4c3N)cn2)cc1 [Example 26, 4-amino-3-[6-(4-methoxyphenyl)pyridine-3-ylazo]naphthalene-1-sulfonic acid sodium salt] | 304 nM |
| Nc1c(/N=N/c2ccc(-c3ccc(Cl)cc3)nc2)cc(S(=O)(=O)O)c2ccccc12 [Example 24, 4-amino-3-[6-(4-chlorophenyl)pyridine-3-ylazo]naphthalene-1-sulfonic acid sodium salt] | 540 nM |
| CSc1ccccc1/N=N/c1cc(S(=O)(=O)O)c2ccccc2c1N [Example 133, 4-amino-3-(2-methylsulfanylphenylazo)naphthalene-1-sulfonic acid sodium salt] | 518 nM |
| N#C/C(=C\c1ccc(/N=N/c2cc(S(=O)(=O)O)c3ccccc3c2N)cc1)c1ccccc1 [Example 143, 4-amino-3-[4-(2-cyano-2-phenylvinyl)phenylazo]naphthalene-1-sulfonic acid sodium salt] | 1220 nM |
| Nc1c(/N=N/c2ccc(-c3c(OCc4cccnc4)ccc4c3sc3ccccc34)nc2)cc(S(=O)(=O)O)c2ccccc12 [Example 80, 4-amino-3-{6-″3-(pyridine-3-ylmethoxy)dibenzothiophene-4-yl]pyridine-3-ylazo}naphthalene-1-sulfonic acid sodium salt] | 329 nM |
| Nc1c(/N=N/c2ccc(-c3cccc4c3sc3ccccc34)nc2)cc(S(=O)(=O)O)c2ccccc12 [Example 31, 4-amino-3-(6-dibenzothiophene-4-ylpyridine-3-ylazo)naphthalene-1-sulfonic acid sodium salt] | 1030 nM |
| Nc1c(/N=N/c2ccc(NC(=O)c3cccs3)cc2)cc(S(=O)(=O)O)c2ccccc12 [Example 97, 4-amino-3-[4-[(2-thienylcarbonyl)amino]phenylazo]-1-naphthalenesulfonic acid sodium salt] | 804 nM |
| Nc1c(/N=N/c2ccc(C(=O)O)cc2)cc(S(=O)(=O)O)c2ccccc12 [Example 104, 4-(1-amino-4-sulfonaphthalene-2-ylazo)benzoic acid disodium salt] | 2070 nM |
| Nc1c(/N=N/c2ccc(-c3ccccc3OCCCN3C(=O)c4ccccc4C3=O)nc2)cc(S(=O)(=O)O)c2ccccc12 [Example 78, 4-amino-3-(6-{2-[3-(1,3-dioxo-1,3-dihydroisoindole-2-yl)propoxy]phenyl}pyridine-3-ylazo)naphthalene-1-sulfonic acid sodium salt] | 402 nM |
| CCCOc1cc(F)ccc1-c1ccc(/N=N/c2cc(S(=O)(=O)O)c3ccccc3c2N)cn1 [Example 57, 4-amino-3-[6-(4-fluoro-2-propoxyphenyl)pyridine-3-ylazo]naphthalene-1-sulfonic acid sodium salt] | 1390 nM |
| Nc1c(/N=N/c2ccccc2Cl)cc(S(=O)(=O)O)c2ccccc12 [Example 98, 4-amino-3-(2-chlorophenylazo)naphthalene-1-sulfonic acid sodium salt] | 591 nM |
| Nc1c(/N=N/c2ccccc2Br)cc(S(=O)(=O)O)c2ccccc12 [Example 108, 4-amino-3-(2-bromophenylazo)naphthalene-1-sulfonic acid sodium salt] | 288 nM |

Reference: patent publication US9573887B2, “Naphthalene derivative” (Daito Chemix Corporation, priority 2010, dated 2017)
